From paper PMC10455244, “Alpha-Mangostin: A Potent Inhibitor of TRPV3 and Pro-Inflammatory Cytokine Secretion in Keratinocytes” (International Journal of Molecular Sciences, 2023)

Molecular target: T1, TRPV3 (G573S) (Homo sapiens, UniProt Q8NET8, G573S)
T1 construct: host or cells: HEK 293T (transient transfection, pEGFP-N1 co-transfected as a marker)
T1 sequence (Q8NET8 1-790 G573S): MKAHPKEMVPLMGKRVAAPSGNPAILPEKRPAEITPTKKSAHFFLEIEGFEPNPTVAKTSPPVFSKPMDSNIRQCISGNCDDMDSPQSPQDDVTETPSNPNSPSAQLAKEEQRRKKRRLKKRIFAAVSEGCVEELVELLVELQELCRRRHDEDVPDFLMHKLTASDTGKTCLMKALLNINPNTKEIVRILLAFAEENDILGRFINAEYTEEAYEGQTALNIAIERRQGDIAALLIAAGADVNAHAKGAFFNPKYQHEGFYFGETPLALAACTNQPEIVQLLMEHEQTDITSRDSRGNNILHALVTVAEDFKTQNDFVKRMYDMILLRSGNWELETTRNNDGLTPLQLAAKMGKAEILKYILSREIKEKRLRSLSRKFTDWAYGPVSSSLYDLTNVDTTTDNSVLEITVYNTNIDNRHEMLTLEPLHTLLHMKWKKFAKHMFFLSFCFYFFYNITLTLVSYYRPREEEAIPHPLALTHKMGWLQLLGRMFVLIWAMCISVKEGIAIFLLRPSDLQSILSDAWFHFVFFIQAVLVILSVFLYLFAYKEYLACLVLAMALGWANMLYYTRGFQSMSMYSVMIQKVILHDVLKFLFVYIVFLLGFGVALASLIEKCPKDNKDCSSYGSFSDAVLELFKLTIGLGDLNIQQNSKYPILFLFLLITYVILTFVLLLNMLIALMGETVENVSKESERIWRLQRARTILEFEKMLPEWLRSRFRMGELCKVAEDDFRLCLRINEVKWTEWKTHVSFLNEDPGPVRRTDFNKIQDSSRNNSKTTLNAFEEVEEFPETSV
Test: Fura-2 calcium imaging, spontaneous Ca2+ increase in TRPV3 (G573S)-expressing HEK 293T cells
Assay type: cell-based
Settings: 1 µM
Excerpt: Figure 4 Alpha-mangostin inhibited the activity of hyperactive TRPV3 mutant channels and rescued mutation-induced cell death. (A) Alpha-mangostin inhibited the channel current in representative TRPV3 (G573S)- and TRPV3 (G573C)-expressing HEK 293T cells. […] Currents were normalized to the response at −100 mV before adding alpha-mangostin. (C) Alpha-mangostin inhibited TRPV3-mediated intracellular calcium increase in TRPV3 (G573S)-expressing HEK 293T cells. […] The bar graph on the right summarizes the change in the intracellular calcium rise inhibited by alpha-mangostin. […]
Subsequently, the effects of alpha-mangostin on the activities of the mutated channels were further evaluated using intracellular calcium measurements.
Fura-2 AM (Thermo Fisher Scientific) was utilized as a fluorescent indicator to measure calcium signal, as described previously. […] To measure the cytosolic Ca^2+ level, a sequential excitation of Fura-2 is performed at 340 nm and 380 nm; then, the emission signals resulting from each excitation wavelength are measured and the ratio of these signals is calculated. […] Samples were excited using a wavelength of 380 nm for 20 ms, followed by 340 nm for 100 ms, and fluorescence at 510 nm was recorded. Recorded data were then analyzed using NIS-Element AR Version 5.00.00 (Nikon Instruments, Melville, NY, USA). […]

COc1c(O)cc2oc3cc(O)c(CC=C(C)C)c(O)c3c(=O)c2c1CC=C(C)C [Alpha-mangostin]
Effect on spontaneous intracellular calcium increase: potently attenuated
